In EP0016946A1, “Process and reagent for the activation of cholesterol esterase” (BOEHRINGER MANNHEIM GMBH, priority 1979, dated 1980):
Blank lines part the entries; values can stand above or below the compound they belong to.

Test system: Cholesterinesterase
Experiment: Cholesterol esterase activity: rate of ester cleavage, continuous-flow apparatus with photometric cholesterol indicator reaction (546 nm)
Type: biochemical
Experimental: Zum Nachweis der aktivierenden Wirkung der zu untersuchenden synergistischen Kombinationen der Erfindung auf Cholesterinesterase wurde die in Fig. 1 dargestellte Apparatur verwendet.
Aus einem temperierbaren Reaktionsgefäß 1 (25°C), in dem sich die Esterspaltung vollzieht, werden über eine Schlauchpumpe 2 durch einen Förderschlauch 3 definierten Querschnitts kontinuierlich o,32 ml Gemisch/Minute entnommen. über die gleiche Pumpe wird durch einen zweiten Schlauch 4 aus einem Vorratsgefäß 5 ebenfalls kontinuierlich 1,o ml Indikatorlösung/Minute gefördert, hinter der Pumpe 2 mit einem Luftstrom 6 von konstant o,6 ml Luft/ Minute zusammengeführt und damit segmentiert und dann mit dem zuvor beschriebenen Reaktionsgemischstrom vereinigt. Der Gesamtstrom passiert daraufhin zwei Glasschlangen 7, wodurch eine Durchmischung der Flüssigkeiten und die notwendige Reaktionszeit für die Indikatorreaktion bis zum Endpunkt gewährleistet wird. Durch Abziehen eines Stroms von 1,2 ml/Minute unmittelbar vor der Küvette durch Schlauchleitung 8 senkrecht nach oben werden die Luftblasen wieder entfernt. Der nicht segmentierte Reststrom wird zur photometrischen Messung (bei 546 nm) in eine Durchflußküvette (1 cm Schichtdicke) geleitet und die Meßwerte werden vom Schreiber 1o registriert.
Wegen der gleichbleibenden Bedingungen bezüglich der Indikatorreaktion sind Änderungen in Höhe und Verlauf des Meßsignals allein von den Vorgängen im Reaktionsgefäß abhängig. Findet dort eine Esterspaltung statt, so bewirkt deren kinetischer Verlauf eine Zunahme des Meßsignals, welches als positive Steigung mit dem Schreiber 1o registriert wird. Die Steilheit des Anstiegs ist ein Maß für die Reaktionsgeschwindigkeit und damit für die Cholesterinesteraseaktivität im Reaktionsansatz.
Wegen des getrennten Ablaufs von Esterspaltung und Indikatorreaktion ist eine gegenseitige Beeinflussung ausgeschlossen. Natürlich wären auch andere Indikatorsysteme einschließlich der Sauerstoffelektrode verwendbar.
Die Indikatorlösung setzt zunächst freies Cholesterin zu Cholestenon und H202 um. Das entstandene H202 wird mit Phenol und 4-Aminoantipyrin zu einem roten Farbstoff umgesetzt, dessen Absorption photometrisch gemessen wird. Die Menge des entstehenden Farbstoffs ist der Konzentration des freien Cholesterins proportional. Die Konzentration an freiem Cholesterin setzt sich aus dem bereits im Substrat vorhandenen Anteil an freiem Cholesterin sowie aus dem durch die Esterase freigesetzten Cholesterin zusammen.
Start mit 50 µl einer Esterase-Stocklösung, woraufhin o,oo3 U/ml Esterase im Ansatz vorliegen. Bei Aktivitätsabstufungen wurde diese Menge variiert.
Nach erfolgtem Start und Durchmischung wird bei laufender Pumpe 2 der Förderschlauch 3 in die Lösung im Reaktionsgefäß 1 für etwa 1o Minuten eingetaucht. Anschließend wird zur besseren Trennung der Signale in jeweils etwa 1o Segmenten wechselweise Luft und bidest. Wasser angesaugt. Daraufhin kann die nächste Bestimmung erfolgen.

Structure (SMILES): Oc1ccccc1 [Phenol]
Resultierende Geschwindigkeit gegenüber Vergleichswert (4o mM (ca. o,35 Gew.-%) additive, 1o %o Genapol OX-1oo/1o %o Na-Caprylat, o,oo3 U/ml Cholesterinesterase, o,1 M Kaliumphosphatpuffer, pH 7,o with adjuvant vs o,3 M buffer without adjuvant): Der Vergleichswert wird erreicht

Structure (SMILES): OCC(Cl)(Cl)Cl [2,2,2-Trichloräthanol]
Resultierende Geschwindigkeit gegenüber Vergleichswert (1 Vol.-% additive, 1o %o Genapol OX-1oo/1o %o Na-Caprylat, o,oo3 U/ml Cholesterinesterase, o,1 M Kaliumphosphatpuffer, pH 7,o with adjuvant vs o,3 M buffer without adjuvant): Der Vergleichswert wird übertroffen | Resultierende Geschwindigkeit gegenüber Vergleichswert (o,1 Vol.-% additive, o,3 M Kaliumphosphatpuffer, pH 7,o, reduced Tergitol NPX concentration with adjuvant vs detergent concentration optimum without adjuvant, o,oo3 U/ml Cholesterinesterase): Der Vergleichswert wird übertroffen | Resultierende Geschwindigkeit gegenüber Vergleichswert (o,3 Vol.-% additive, 0,3 M Kaliumphosphatpuffer, pH 7,o, reduced Genapol OX-1oo/Natriumcaprylat concentration with adjuvant vs detergent concentration optimum without adjuvant, o,oo3 U/ml Cholesterinesterase): Der Vergleichswert wird deutlich übertroffen

Resultierende Geschwindigkeit gegenüber Vergleichswert (1,4 Vol.-% additive, 15 %o Tergitol NPX, 0,003 U/ml Cholesterinesterase, o,1 M Kaliumphosphatpuffer, pH 7,o with adjuvant vs o,3 M buffer without adjuvant, 25°C): Der Vergleichswert wird übertroffen | Resultierende Geschwindigkeit gegenüber Vergleichswert (1 Vol.-% additive, 0,3 M Kaliumphosphatpuffer, pH 7,o, reduced Genapol OX-1oo/Natriumcaprylat concentration with adjuvant vs detergent concentration optimum without adjuvant, o,oo3 U/ml Cholesterinesterase): Der Vergleichswert wird erreicht
Structure (SMILES): CC(C)CC(C)O (stereo not shown) [4-Methylpentanol-(2)]

Structure (SMILES): OC1CCCCC1 [Cyclohexanol]
Resultierende Geschwindigkeit gegenüber Vergleichswert (1 Vol.-% additive, o,3 M Kaliumphosphatpuffer, pH 7,o, reduced Tergitol NPX concentration with adjuvant vs detergent concentration optimum without adjuvant, o,oo3 U/ml Cholesterinesterase): Der Vergleichswert wird deutlich übertroffen | Resultierende Geschwindigkeit gegenüber Vergleichswert (2 Vol.-% additive (example 6.3), 15 %o Tergitol NPX, 0,003 U/ml Cholesterinesterase, o,1 M Kaliumphosphatpuffer, pH 7,o with adjuvant vs o,3 M buffer without adjuvant, 25°C): Der Vergleichswert wird deutlich übertroffen | Resultierende Geschwindigkeit gegenüber Vergleichswert (2 Vol.-% additive, 0,3 M Kaliumphosphatpuffer, pH 7,o, reduced Genapol OX-1oo/Natriumcaprylat concentration with adjuvant vs detergent concentration optimum without adjuvant, o,oo3 U/ml Cholesterinesterase): Der Vergleichswert wird übertroffen | Resultierende Geschwindigkeit gegenüber Vergleichswert (2 Vol.-% additive, 1o %o Genapol OX-1oo/1o %o Na-Caprylat, o,oo3 U/ml Cholesterinesterase, o,1 M Kaliumphosphatpuffer, pH 7,o with adjuvant vs o,3 M buffer without adjuvant): Der Vergleichswert wird übertroffen
